This note sets out measurements from ChEMBL document CHEMBL1151826, “Sulfated steroids: ptilosteroids A-C and ptilosaponosides A and B from the Solomon Islands marine sponge Ptilocaulis spiculifer” (J Nat Prod, 2009).

The subject of this assay is KB. Nature of the assay: Cytotoxicity against human KB cells. The assay is classed as functional, cell-based.
Consider `C=C[C@H]1CC[C@H]2[C@@H]3CC[C@H]4[C@@H](O[C@@H]5O[C@H](CO)[C@@H](O)[C@H](OS(=O)(=O)O)[C@H]5O)[C@@H](OS(=O)(=O)O)CC[C@]4(CO)[C@H]3CC[C@]12C`, for which the Activity result was “Not toxic”.

On to `C=CC1C(O)CC2C3CCC4C(O)C(O)C(OS(=O)(=O)O)CC4(C)C3CCC12C` (stereo not given), for which the Activity entry is “Not toxic”.

Turning to `C=C[C@H]1CC[C@H]2[C@@H]3CC[C@H]4[C@@H](O[C@@H]5O[C@H](CO)[C@@H](O)[C@H](OS(=O)(=O)O)[C@H]5O)[C@@H](O)CC[C@]4(CO)[C@H]3CC[C@]12C`, the Activity entry is “Not toxic”.

For the molecule `C=CC1C(O)C(O)C2C3CCC4C(O)C(O)C(OS(=O)(=O)O)CC4(C)C3CCC12C` (stereo not given), the Activity result was “Not toxic”.

Consider `C=CC1CC(O)C2C3CCC4C(O)C(O)C(OS(=O)(=O)O)CC4(C)C3CCC12C` (stereo not given), for which the Activity entry was “Not toxic”.
